According to publication PMC9715946, “Bioenhancing effects of piperine and curcumin on triterpenoid pharmacokinetics and neurodegenerative metabolomes from Centella asiatica extract in beagle dogs” (Scientific Reports, 2022):
Blank lines part the entries; values can stand above or below the molecule they belong to.

What was measured:
[1] = in combination with 100 mg/kg of curcumin; cited from earlier work
[2] = Pharmacokinetic study: plasma triterpenoids by LCMS, non-compartmental analysis; design: species or system beagle dogs; conditions: dog, in vivo; for Tmax: 20 mg/kg
Text: The proposed animal experiment was approved by the Institutional Animal Care and Use Committee of the Chulalongkorn University Laboratory Animal Centre (CULAC), Chulalongkorn University, Bangkok, Thailand (Protocol number 2073029, Approval date: […] The dogs were fed with a normal dog diet (Beauty Pro, Nippon Pet Food Co. Ltd.) once a day and water ad libitum. Two groups of four dogs were randomly used with a 2-week washout period. […] After receiving the test substances, the dogs were transferred to a metabolic cage for 48 h for the collection of urine and faeces. All animal procedures were performed in accordance with the ethical principles, regulations, and guidelines for the use of animals (National Research Council of Thailand, 2015). This study was conducted in compliance with the ARRIVE guidelines. Four experimental groups received the oral test compound once daily for seven consecutive days, as follows: ([…] 20 […] 20 mg/kg + piperine 20 mg/kg; ([…] 20 mg/kg + curcumin 20 mg/kg; and (iv) […] 20 mg/kg + piperine 20 mg/kg + curcumin 20 mg/kg. The test substance powders received from the suppliers were packed into gelatine capsule, and the dogs were orally administered two to four capsules in the morning, according to the number of test substances required in the experimental plan. Blood samples (2-3 mL) were withdrawn from the cephalic or saphenous vein using an IV catheter and placed in heparinised tubes. […] The pre-dose and 24 h post-dose blood chemistry parameters were determined by the Small Animal Hospital, Faculty of Veterinary Science, Chulalongkorn University for all dogs, in order to monitor the health status of the dogs. […] All biological samples were kept at - 80 °C until required for analysis. Where the concentration of the samples exceeded the linear calibration curve, blank matrices were used to dilute the sample before protein precipitation. Methanol was used to extract the major triterpenoids from the biological samples for LCMS analysis. In brief, 50 μL of the biological sample was added to 200 μL methanol containing glycyrrhizin and glycyrrhetinic acid as internal standards. The mixture was then centrifuged at 12,000g for 10 min at 4 °C to collect the supernatant, and 10 μL of the supernatant was injected into the LCMS system to measure the concentration of the targeted analytes. […] A Synergi Fusion-RP C18 column (Phenomenex Inc.) was selected as the stationary phase and maintained at 40 °C in the column oven. […] The lower limit of quantification (LLOQ) of each of the compounds in this study ranged from 1.00 to 10.00 μg/L, according to the compound. After oral administration, pharmacokinetic parameters were determined by PK solution software version 2.0 (Submit Research Services, USA.) using non-compartmental analysis. The maximum plasma concentration (Cmax) and time to reach maximum plasma concentration (Tmax) were calculated directly from the concentration-time curves. The area under the curve from time 0-24 h (AUC0-24) was determined by the trapezoidal method and extrapolated to time infinity by the equation AUC0-inf = AUC0-24 + (Clast/kel), where Clast is the last measurable plasma concentration and kel is the elimination rate constant. The rate of […] was equal to - 2.303 × slope. The mean residence time (MRT) was calculated as AUMC0-inf/AUC0-inf, where AUMC0-inf is the area under the first moment curve. The volume of distribution (Vd) was equivalent to dose/C0, where C0 is the concentration of drug measured in plasma at time zero. The total clearance (CL) was equal to dose/AUC0-inf, and the elimination half-life was determined by 0.693/kel. […] The difference in blood chemistry parameters pre-dose and post-dose was compared using Student's t test. SPSS version 22.0 (IBM Corp.) was used to determine statistically significant differences between the experimental groups. […]

[3] = design: method as in PMID 19934593; conditions: pre-treatment with curcumin 60 mg/kg; cited from earlier work
[4] = piperine in combination, self-emulsifying drug delivery systems; cited from earlier work

Molecule: CC(=O)O[C@@]12CO[C@@H]1C[C@H](O)[C@@]1(C)C(=O)[C@H](O)C3=C(C)[C@@H](OC(=O)[C@H](O)[C@@H](NC(=O)OC(C)(C)C)c4ccccc4)C[C@@](O)([C@@H](OC(=O)c4ccccc4)[C@H]21)C3(C)C [docetaxel]
Increase of bioavailability compared to the control group [1]: approximately eight-fold

Increase of systemic exposure (Cmax and AUC) by Centell-S + piperine compared to Centell-S alone ([2]; male, beagle): 1.5 to 3.0 fold | Accumulation ratio ([2]; male, beagle, 7 days): 1.05–1.44 | Tmax ([2]; male, beagle, po, Time to reach maximum plasma concentration): 2 to 4 h | Tmax ([2]; male, beagle, po, Tmax): 2 h
Molecule: C[C@H]1[C@H](C)CC[C@]2(C(=O)O)CC[C@]3(C)C(=CC[C@@H]4[C@@]5(C)C[C@@H](O)[C@H](O)[C@@](C)(CO)[C@@H]5CC[C@]43C)[C@H]12 [Asiatic acid, asiatic acid]

Increase of systemic exposure (Cmax and AUC) by Centell-S + piperine compared to Centell-S alone [2]: 1.5 to 3.0 fold | Time to reach maximum plasma concentration [2]: 2 to 4 h | Time to reach maximum plasma concentration ([2]; po): 1 to 2 h
Molecule: madecassoside

Molecule: CCn1cc(C(=O)O)c(=O)c2cc(F)c(N3CCNCC3)cc21 [norfloxacin]
Increase of AUC compared with the control group [3]: approximately two-fold

Molecule: C=C(C)[C@@H]1CCC(C)=C[C@H]1c1c(O)cc(CCCCC)cc1O [cannabidiol]
Improvement of oral bioavailability compared to the control group [4]: approximately 2.5 fold
